Patent publication US6410591B1, “3,7 or 3 and 7 thia or oxa prostanoic acid derivatives as agents for lowering intraocular pressure” (Allergan Sales, Inc., priority 2001, dated 2002)

Assays:
intraocular pressure [1] = assay: Intraocular pressure in dogs, applanation pneumatonometry; format: in vivo; settings: for reduced the intraocular pressure (IOP) by: 25 μl to the ocular surface, IOP at 6 hours
Method: The compounds were prepared at the said concentrations in a vehicle comprising 0.1% polysorbate 80 and 10 mM TRIS base. Dogs were treated by administering 25 μl to the ocular surface, the contralateral eye received vehicle as a control. Intraocular pressure was measured by applanation pneumatonometry. Dog intraocular pressure was measured immediately before drug administration and at 6 hours thereafter.

intraocular pressure [2] = assay: Intraocular pressure in glaucomatous cynomolgus monkeys; format: in vivo, glaucomatous cynomonlgus monkey

SMILES	reduced the intraocular pressure (IOP) by (intraocular pressure [1]; dose of 0.01% w/v)	reduced the intraocular pressure (IOP) by (intraocular pressure [1]; dose of 0.1% w/v)	ocular hypotensive effect (intraocular pressure [1]; topical ocular, 25 μl)	effect on IOP (intraocular pressure [2]; glaucomatous cynomonlgus monkey, dose of 0.01% w/v)	ocular hypotensive effect (intraocular pressure [2]; glaucomatous cynomonlgus monkeys)
CCCCC[C@H](O)/C=C/[C@H]1[C@H](O)CC(=O)[C@@H]1SCCCSCC(=O)O [Compound 9, {3-[(1R,2S,3R)-3-Hydroxy-2-((S)-(E)-3-hydroxyoct-1-enyl)-5-oxocyclopentyl-sulfanyl]propylsulfanyl}acetic acid]	45%	50%	pronounced ocular hypotensive effect	–	–
CCCCC[C@H](O)/C=C/[C@H]1[C@H](O)CC(=O)[C@@H]1SCCCSCC(=O)OC(C)C [Compound 10, {3-[(1R,2S,3R)-3-Hydroxy-2-((S)-(E)-3-hydroxyoct-1-enyl)-5-oxocyclopentyl-sulfanyl]propylsulfanyl}acetic acid isopropyl ester]	–	–	–	reduced the IOP	pronounced ocular hypotensive effect
